In brackets after ≈: the same amount, converted by molar mass.
Experiments:
Assay type in all cases: functional
Klebsiella pneumoniae = test: Compound (isolated from leaves of Cistus monspeliensis) was tested for antimicrobial activity against Klebsiella pneumoniae (ATCC 13883)
Escherichia coli = test: Compound (isolated from leaves of Cistus monspeliensis) was tested for antimicrobial activity against Escherichia coli (ATCC 25922)
[1] = tested on: Staphylococcus epidermidis; test: Compound (isolated from leaves of Cistus monspeliensis) was tested for antimicrobial activity against Staphylococcus epidermidis (ATCC 12228)
Staphylococcus hominis = test: Compound (isolated from leaves of Cistus monspeliensis) was tested for antimicrobial activity against Staphylococcus hominis (ATCC 27844)
Staphylococcus aureus = test: Compound (isolated from leaves of Cistus monspeliensis) was tested for antimicrobial activity against Staphylococcus aureus (ATCC 6538)

| MIC50 (Klebsiella pneumoniae) [µg/mL] | MIC50 (Escherichia coli) [µg/mL] | MIC50 [1] [µg/mL] | MIC50 (Staphylococcus hominis) [µg/mL] | MIC50 (Staphylococcus aureus) [µg/mL] | Structure (SMILES) |
| --- | --- | --- | --- | --- | --- |
| > 2000 | > 2000 | – | – | – | C=C[C@@]1(C)CC[C@@H]2[C@](C)(CCC3C(C)(C)CCC[C@]32C)O1 (some centres not stated) |
| 0.6 (≈ 1.03 µM) | 0.6 (≈ 1.03 µM) | 2.1 (≈ 3.61 µM) | 2.1 (≈ 3.61 µM) | 2.1 (≈ 3.61 µM) | CN[C@@H]1[C@H](O[C@H]2[C@H](O[C@H]3[C@H](O)[C@@H](O)[C@H](N=C(N)N)[C@@H](O)[C@@H]3N=C(N)N)O[C@@H](C)[C@]2(O)C=O)O[C@@H](CO)[C@H](O)[C@H]1O [STREPTOMYCIN] |
